Source: US20200138734A1, “TOPICAL FORMULATION FOR TREATING BRUISING” (priority 2018, published 2020)
Read-outs that look alike come from different tables or passages of the source.

Tested on: bruise
[1] = lower concentrations within 2% to 20% by weight

Q: With CCC(C)O (stereo not drawn) [2-Butanol] as the compound, how does the bruise resolution (2-Butanol alone in the topical formulation, without penetrant) read?
A: would not provide the bruise resolution

Q: What about the “side-effects (pain, itching, redness, exfoliation)” value (4% -12% 2-Butanol by weight) of the same compound?
A: resolved

Q: And the bruise resolution (10% 2-Butanol by weight of topical formulation)?
A: very good bruise resolution

Q: What about the “frequency and severity of side-effects, such as pain, itching, redness and exfoliation” value (higher concentrations within 2% to 20% by weight) of the same compound?
A: increased

Q: And the “efficacy of bruise resolution” value [1]?
A: decreased

Q: And the “frequency and severity of side-effects” value [1]?
A: decreased
